The record followed here is US20100056526A1, “HETEROMONOCYCLIC COMPOUND AND USE THEREOF” (Takeda Pharmaceutical Company Limited, priority 2006, published 2010).

One assay concerns the target T1, human AT1 receptor (Homo sapiens, UniProt P30556).
T1 construct: expressed in transfected cells; host or cells: CHO-K1
T1 sequence (P30556 1-359): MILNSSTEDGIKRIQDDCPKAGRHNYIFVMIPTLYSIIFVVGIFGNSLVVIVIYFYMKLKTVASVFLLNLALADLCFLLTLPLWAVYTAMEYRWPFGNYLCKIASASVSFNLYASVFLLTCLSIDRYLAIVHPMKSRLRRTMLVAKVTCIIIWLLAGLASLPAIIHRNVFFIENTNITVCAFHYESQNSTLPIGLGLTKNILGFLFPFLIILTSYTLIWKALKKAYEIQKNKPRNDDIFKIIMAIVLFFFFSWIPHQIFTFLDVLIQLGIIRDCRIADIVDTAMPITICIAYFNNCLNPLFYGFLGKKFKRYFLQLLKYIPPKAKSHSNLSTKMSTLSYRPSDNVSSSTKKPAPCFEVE
The assay is described as follows: Binding assay using human AT1 receptor-expressing CHO-K1 cell membrane fraction ([125I]-angiotensin II). To be noted: 22.5 pM [125I]-angiotensin II, 9 μg AT1 membrane, 1 hr room temperature; read-out: AT1 receptor binding inhibitory action (IC50 (nM)). The procedure, abridged: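 Radioligand displacement: test compound competed with [125I]-angiotensin II (22.5 pM) on stable CHO-K1 AT1 membrane fraction, 1 hr, room temperature, Tris pH 7.4/MgCl2 buffer ± 0.3 mg/mL BSA. Filtration then scintillation counting; 1 μM CV-11974 defined nonspecific binding. Values are IC50s.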

Another assay has as its target T2, PPARγ (Homo sapiens, UniProt P37231).
T2 construct: expressed in transfected cells; host or cells: CHO-K1
T2 sequence (P37231 1-477 isoform P37231-2): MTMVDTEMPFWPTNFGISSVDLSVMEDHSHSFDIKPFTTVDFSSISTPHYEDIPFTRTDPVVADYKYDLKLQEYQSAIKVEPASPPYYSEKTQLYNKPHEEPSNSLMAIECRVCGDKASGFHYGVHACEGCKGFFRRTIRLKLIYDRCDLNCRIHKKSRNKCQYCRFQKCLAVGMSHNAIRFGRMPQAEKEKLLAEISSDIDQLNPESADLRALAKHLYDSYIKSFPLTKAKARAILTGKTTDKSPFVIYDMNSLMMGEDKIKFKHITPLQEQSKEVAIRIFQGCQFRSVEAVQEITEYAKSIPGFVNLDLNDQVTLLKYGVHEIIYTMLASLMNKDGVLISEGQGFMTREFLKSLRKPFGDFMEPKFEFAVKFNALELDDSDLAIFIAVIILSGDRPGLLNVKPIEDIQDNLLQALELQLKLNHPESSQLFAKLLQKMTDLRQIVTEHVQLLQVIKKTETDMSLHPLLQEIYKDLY
T2 sequence (P19793 1-462 partner): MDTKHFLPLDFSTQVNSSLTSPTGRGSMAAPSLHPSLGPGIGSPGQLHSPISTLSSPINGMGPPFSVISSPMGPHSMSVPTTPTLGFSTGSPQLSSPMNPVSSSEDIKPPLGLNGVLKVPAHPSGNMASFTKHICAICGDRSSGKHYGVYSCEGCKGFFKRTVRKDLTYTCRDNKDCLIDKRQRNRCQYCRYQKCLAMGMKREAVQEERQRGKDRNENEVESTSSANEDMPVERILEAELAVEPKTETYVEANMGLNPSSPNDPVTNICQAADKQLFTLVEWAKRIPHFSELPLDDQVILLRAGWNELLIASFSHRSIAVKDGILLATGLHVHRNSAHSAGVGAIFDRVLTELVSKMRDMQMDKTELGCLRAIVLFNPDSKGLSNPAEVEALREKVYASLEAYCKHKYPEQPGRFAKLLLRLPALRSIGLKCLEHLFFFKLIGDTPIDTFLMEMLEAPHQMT
The assay is described as follows: Evaluation of PPARγ activating action (luciferase reporter in PPARγ:RXRα:4ERPP/CHO-K1 cells). It is filed as cell-based. To be noted: CHO-K1, 24 h; test compound 10^−6 M; luciferase activity relative to control compound X (1 μM) = 100%, non-administration group = 0%; read-out: PPARγ activating action (activation % (10^−6 M)). The method, boiled down:
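Activity is expressed as percent, where vehicle gives 0% and 1 μM compound X gives 100%, based on luciferase luminescence. Reporter CHO-K1 cells co-expressing PPARγ:RXRα with a 4ERPP-driven luciferase were incubated with test compound for one day at 37 °C in medium with 0.1% fatty acid-free BSA.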

Take `CCCc1nc(C)n(-c2ccc(OC3CCC(=O)CC3)cc2)c(=O)c1Cc1ccc(-c2ccccc2-c2noc(O)n2)cc1F` [Example 346, 5-{[3-fluoro-2′-(5-oxo-4,5-dihydro-1,2,4-oxadiazol-3-yl)biphenyl-4-yl]methyl}-2-methyl-3-{4-[(4-oxocyclohexyl)oxy]phenyl}-6-propylpyrimidin-4(3H)-one]: on human AT1 receptor, the 50% inhibitory concentration (IC50) is 1 nM. In addition, the activation at 1 µM at PPARγ is 21.8%.

`CCCc1nc(C)n(-c2ccc(OC3CCC(=O)C(C)C3)cc2)c(=O)c1Cc1ccc(-c2ccccc2-c2noc(O)n2)cc1` (stereo not shown) [Example 356, 2-methyl-3-{4-[(3-methyl-4-oxocyclohexyl)oxy]phenyl}-5-{[2′-(5-oxo-4,5-dihydro-1,2,4-oxadiazol-3-yl)biphenyl-4-yl]methyl}-6-propylpyrimidin-4(3H)-one]: on human AT1 receptor, the 50% inhibitory concentration (IC50) came out at 1.1 nM. Besides, the activation at 1 µM at PPARγ amounted to 16.6%.

Turning to `CCCc1nc(CC)n(-c2ccc(OC(C)C)cc2)c(=O)c1Cc1ccc(-c2ccccc2-c2noc(=O)[nH]2)cc1` [Example 362, 2-ethyl-3-(4-isopropoxyphenyl)-5-{[2′-(5-oxo-4,5-dihydro-1,2,4-oxadiazol-3-yl)biphenyl-4-yl]methyl}-6-propylpyrimidin-4(3H)-one], at human AT1 receptor, the IC50 was 2.4 nM. The activation at 1 µM at PPARγ came to 58.7%.

Regarding `CCCc1nc(CC)n(-c2ccc(OC(C)C)c(F)c2)c(=O)c1Cc1ccc(-c2ccccc2-c2noc(=O)[nH]2)cc1` [Example 363, 2-ethyl-3-(3-fluoro-4-isopropoxyphenyl)-5-{[2′-(5-oxo-4,5-dihydro-1,2,4-oxadiazol-3-yl)biphenyl-4-yl]methyl}-6-propylpyrimidin-4(3H)-one], the half-maximal inhibitory concentration (IC50) at human AT1 receptor came out at 2.1 nM. Besides, on PPARγ, the activation at 1 µM worked out at 53.7%.

Consider `CCCc1nc(CC)n(-c2ccc(OC(C)(C)C)cc2)c(=O)c1Cc1ccc(-c2ccccc2-c2noc(=O)[nH]2)cc1` [Example 364, 3-(4-tert-butoxyphenyl)-2-ethyl-5-{[2′-(5-oxo-4,5-dihydro-1,2,4-oxadiazol-3-yl)biphenyl-4-yl]methyl}-6-propylpyrimidin-4(3H)-one], for which, on human AT1 receptor, the 50% inhibitory concentration (IC50) was 1.9 nM. Further, the activation at 1 µM on PPARγ turned out to be 32.6%.

For `CCCc1nc(CC)n(-c2cccc(C(C)(C)O)c2)c(=O)c1Cc1ccc(-c2ccccc2-c2noc(=O)[nH]2)cc1` [Example 365, 2-ethyl-3-[3-(1-hydroxy-1-methylethyl)phenyl]-5-{[2′-(5-oxo-4,5-dihydro-1,2,4-oxadiazol-3-yl)biphenyl-4-yl]methyl}-6-propylpyrimidin-4(3H)-one], on human AT1 receptor, the IC50 amounted to 1.8 nM. For the same compound, at PPARγ, the activation at 1 µM is 25.3%.

With `CCCc1nc(OC)n(-c2ccc(OC(C)C)cc2)c(=O)c1Cc1ccc(-c2ccccc2-c2noc(O)n2)cc1` [Example 368, 3-(4-isopropoxyphenyl)-2-methoxy-5-{[2′-(5-oxo-4,5-dihydro-1,2,4-oxadiazol-3-yl)biphenyl-4-yl]methyl}-6-propylpyrimidin-4(3H)-one], the half-inhibitory concentration (IC50) on human AT1 receptor stood at 2 nM. In addition, the activation at 1 µM on PPARγ worked out at 50.2%.

`CCCc1nc(OC)n(-c2ccc(OC(C)(C)C)cc2)c(=O)c1Cc1ccc(-c2ccccc2-c2noc(O)n2)cc1` [Example 369, 3-(4-tert-butoxyphenyl)-2-methoxy-5-{[2′-(5-oxo-4,5-dihydro-1,2,4-oxadiazol-3-yl)biphenyl-4-yl]methyl}-6-propylpyrimidin-4(3H)-one]: the 50% inhibitory concentration (IC50) at human AT1 receptor stood at 1.9 nM. Moreover, on PPARγ, the activation at 1 µM turned out to be 36.3%.

Turning to `CCCc1nc(CC)n(-c2ccc(OC(C)C)nc2)c(=O)c1Cc1ccc(-c2ccccc2-c2noc(=O)[nH]2)cc1` [Example 373, 2-ethyl-3-(6-isopropoxypyridin-3-yl)-5-{[2′-(5-oxo-4,5-dihydro-1,2,4-oxadiazol-3-yl)biphenyl-4-yl]methyl}-6-propylpyrimidin-4(3H)-one], the half-inhibitory concentration (IC50) at human AT1 receptor was found to be 2.4 nM. In addition, the activation at 1 µM at PPARγ came to 48.4%.

Consider `CCCc1nc(CC)n(-c2ccc(OC(C)(C)COC)cc2)c(=O)c1Cc1ccc(-c2ccccc2-c2noc(=O)[nH]2)cc1` [Example 376, 2-ethyl-3-[4-(2-methoxy-1,1-dimethylethoxy)phenyl]-5-{[2′-(5-oxo-4,5-dihydro-1,2,4-oxadiazol-3-yl)biphenyl-4-yl]methyl}-6-propylpyrimidin-4(3H)-one], for which the IC50 on human AT1 receptor turned out to be 1.7 nM. The activation at 1 µM at PPARγ is 22%.

Consider `CCCc1nc(CC)n(-c2ccc(OC(C)(C)CO)cc2)c(=O)c1Cc1ccc(-c2ccccc2-c2noc(=O)[nH]2)cc1` [Example 377, 2-ethyl-3-[4-(2-hydroxy-1,1-dimethylethoxy)phenyl]-5-{[2′-(5-oxo-4,5-dihydro-1,2,4-oxadiazol-3-yl)biphenyl-4-yl]methyl}-6-propylpyrimidin-4(3H)-one], for which, at human AT1 receptor, the half-inhibitory concentration (IC50) was 1.5 nM. For the same compound, the activation at 1 µM on PPARγ worked out at 30.3%.

For the compound `CCCc1nc(CC)n(-c2ccc(OC3CCOCC3)cc2)c(=O)c1Cc1ccc(-c2ccccc2-c2noc(=O)[nH]2)cc1` [Example 378, 2-ethyl-5-{[2′-(5-oxo-4,5-dihydro-1,2,4-oxadiazol-3-yl)biphenyl-4-yl]methyl}-6-propyl-3-[4-(tetrahydro-2H-pyran-4-yloxy)phenyl]pyrimidin-4(3H)-one], on human AT1 receptor, the half-inhibitory concentration (IC50) stood at 1.5 nM. The activation at 1 µM on PPARγ was found to be 46.9%.

`CCCc1nc(C)n(OC2CCOCC2)c(=O)c1Cc1ccc(-c2ccccc2-c2noc(=O)[nH]2)cc1` [Example 379, 2-methyl-5-{[2′-(5-oxo-4,5-dihydro-1,2,4-oxadiazol-3-yl)biphenyl-4-yl]methyl}-6-propyl-3-(tetrahydro-2H-pyran-4-yloxy)pyrimidin-4(3H)-one]: the IC50 on human AT1 receptor stood at 3.4 nM. Further, at PPARγ, the activation at 1 µM amounted to 31%.

On to `CCCc1nc(CC)n(-c2ccc(OC3CCC[C@H]3O)cc2)c(=O)c1Cc1ccc(-c2ccccc2-c2noc(=O)[nH]2)cc1` (stereo partly drawn) [Example 381, 2-ethyl-3-(4-{[(2R)-2-hydroxycyclopentyl]oxy}phenyl)-5-{[2′-(5-oxo-4,5-dihydro-1,2,4-oxadiazol-3-yl)biphenyl-4-yl]methyl}-6-propylpyrimidin-4(3H)-one], for which the IC50 at human AT1 receptor turned out to be 1.2 nM. The activation at 1 µM at PPARγ worked out at 28.2%.

As for `CCCc1nc(CC)n(-c2ccc(OC3CCCC3=O)cc2)c(=O)c1Cc1ccc(-c2ccccc2-c2noc(=O)[nH]2)cc1` (stereo not shown) [Example 382, 2-ethyl-3-{4-[(2-oxocyclopentyl)oxy]phenyl}-5-{[2′-(5-oxo-4,5-dihydro-1,2,4-oxadiazol-3-yl)biphenyl-4-yl]methyl}-6-propylpyrimidin-4(3H)-one], at human AT1 receptor, the IC50 amounted to 1.2 nM. The activation at 1 µM on PPARγ is 27.2%.

Regarding `CCCc1nc(OC)n(-c2ccc(O[C@@H]3C[C@@H](C)O[C@@H](C)C3)cc2)c(=O)c1Cc1ccc(-c2ccccc2-c2noc(=O)[nH]2)cc1` [Example 388, 3-(4-{[(2R,4s,6S)-2,6-dimethyltetrahydro-2H-pyran-4-yl]oxy}phenyl)-2-methoxy-5-{-[2′-(5-oxo-4.,5-dihydro-1,2,4-oxadiazol-3-yl)biphenyl-4-yl]methyl}-6-propylpyrimidin-4(3H)-one], the IC50 at human AT1 receptor is 1.6 nM. Besides, the activation at 1 µM at PPARγ amounted to 34.4%.

For `CCCc1nc(CC)n(-c2ccc(OC3(COC)CCCC3)cc2)c(=O)c1Cc1ccc(-c2ccccc2-c2noc(=O)[nH]2)cc1` [Example 389, 2-ethyl-3-(4-{[1-(methoxymethyl)cyclopentyl]oxy}phenyl)-5-{[2′-(5-oxo-4,5-dihydro-1,2,4-oxadiazol-3-yl)biphenyl-4-yl]methyl}-6-propylpyrimidin-4(3H)-one], the half-maximal inhibitory concentration (IC50) on human AT1 receptor was determined as 1.8 nM. Moreover, the activation at 1 µM on PPARγ was found to be 18.1%.
